Measured values reported in US8759520B2, “Compounds for treating cancer” (Boehringer Ingelheim International GmbH, priority 2008, dated 2014).

biological target: T1, Bcl-2 (Homo sapiens, UniProt P10415); assay: not given; conditions: reported by Wang and co-workers; read-out: equilibrium binding constant KD to Bcl-2 protein; cited from earlier work
T1 sequence (P10415 whole entry, species assumed): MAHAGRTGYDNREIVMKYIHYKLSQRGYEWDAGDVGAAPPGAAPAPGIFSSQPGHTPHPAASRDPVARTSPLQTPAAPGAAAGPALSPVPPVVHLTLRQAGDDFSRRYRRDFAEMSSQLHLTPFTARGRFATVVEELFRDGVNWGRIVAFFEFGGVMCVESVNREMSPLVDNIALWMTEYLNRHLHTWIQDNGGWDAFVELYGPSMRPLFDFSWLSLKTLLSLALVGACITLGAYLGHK

| Compound | Kd |
| --- | --- |
| BH3 domain derived peptide ligand, sequence GQVGRQLAIIGDDINR, fluorescently labelled for the assay | ~0.2 µM |

biological target: T1, Bcl-2; assay: Homogeneous HTS assay for inhibitors of the Bcl-2 : Bak (72-87) BH3 domain interaction, fluorescence polarisation (2D-FIDA); type: binding; conditions: fluorescence polarisation, fluorescent labelled Bak BH3 domain derived peptide; read-out: IC50 [μM] Bcl-2

| Compound | IC50 |
| --- | --- |
| N=c1n(Cc2ccccc2)c2ccccc2n1CC(O)COc1ccc(Cl)cc1 (stereo not shown) [Compound 80, 1-(3-Benzyl-2-imino-2,3-dihydro-benzoimidazol-1-yl)-3-(4-chloro-phenoxy)-propan-2-ol] | 11 to 100 µM |
| N=c1n(Cc2ccc(Br)cc2)c2ccccc2n1CC1COc2ccccc2O1 (stereo not shown) [Compound 13, 1-(4-Bromo-benzyl)-3-(2,3-dihydro-benzo[1,4]dioxin-2-ylmethyl)-1,3-dihydro-benzoimidazol-2-ylideneamine] | 11 to 100 µM |
| Cc1ccccc1Cn1c(=N)n(CCCOc2ccccc2)c2ccccc21 [Compound 94, 1-(2-Methyl-benzyl)-3-(3-phenoxy-propyl)-1,3-dihydro-benzoimidazol-2-ylideneamine] | 11 to 100 µM |
| N=c1n(Cc2ccccc2)c2ccccc2n1CC(O)c1ccccc1 (stereo not shown) [Compound 92, 2-(3-Benzyl-2-imino-2,3-dihydro-benzoimidazol-1-yl)-1-phenyl-ethanol] | > 100 µM |
| N=c1n(CCCOc2ccc(F)cc2)c2ccccc2n1Cc1ccc(CN2CCN(Cc3ccccc3)CC2)cc1 [Compound 46, 1-[4-(4-Benzyl-piperazin-1-ylmethyl)-benzyl]-3-[3-(4-fluoro-phenoxy)-propyl]-1,3-dihydro-benzoimidazol-2-ylideneamine] | < 10 µM |
| N=c1n(Cc2ccccc2)c2ccccc2n1Cc1ccccn1 [Compound 1, 1-Benzyl-3-pyridin-2-ylmethyl-1,3-dihydro-benzoimidazol-2-ylideneamine] | 11 to 100 µM |
| N=c1n(CCCOc2ccc(F)cc2)c2ccccc2n1Cc1ccc(N2CCN(Cc3cccc(Cl)c3)CC2)nc1 [Compound 54, 1-{6-[4-(3-Chloro-benzyl)-piperazin-1-yl]-pyridin-3-ylmethyl}-3-[3-(4-fluoro-phenoxy)-propyl]-1,3-dihydro-benzoimidazol-2-ylideneamine] | 11 to 100 µM |
| N=c1n(CCCOc2cccc(C(=O)O)c2)c2ccccc2n1Cc1ccc(N2CCN(Cc3ccccc3-c3ccccc3)CC2)cc1 [Compound 70, 3-(3-{3-[4-(4-Biphenyl-2-ylmethyl-piperazin-1-yl)-benzyl]-2-imino-2,3-dihydro-benzoimidazol-1-yl}-propoxy)-benzoic acid] | < 10 µM |
| Cc1ccc2c(c1)n(Cc1ccc(N3CCN(Cc4ccccc4-c4ccccc4)CC3)cc1)c(=N)n2CCCOc1ccc(F)cc1 [Compound 62, 3-[4-(4-Biphenyl-2-ylmethyl-piperazin-1-yl)-benzyl]-1-[3-(4-fluoro-phenoxy)-propyl]-5-methyl-1,3-dihydro-benzoimidazol-2-ylideneamine] | < 10 µM |
| CC1(C)CCC(c2ccc(Cl)cc2)=C(CN2CCN(c3nc(Cn4c(=N)n(CCCOc5ccc(F)cc5)c5ccccc54)cs3)CC2)C1 [Compound 37, 1-(2-{4-[2-(4-Chloro-phenyl)-5,5-dimethyl-cyclohex-1-enylmethyl]-piperazin-1-yl}-thiazol-4-ylmethyl)-3-[3-(4-fluoro-phenoxy)-propyl]-1,3-dihydro-benzoimidazol-2-ylideneamine] | < 10 µM |
| N=c1n(Cc2ccccc2Cl)c2ccccc2n1CC(O)COc1ccccc1 (stereo not shown) [Compound 102, 1-[3-(2-Chloro-benzyl)-2-imino-2,3-dihydro-benzoimidazol-1-yl]-3-phenoxy-propan-2-ol] | > 100 µM |
| N=c1n(Cc2ccccc2)c2ccccc2n1CC(O)COc1ccc([N+](=O)[O-])cc1 (stereo not shown) [Compound 81, 1-(3-Benzyl-2-imino-2,3-dihydro-benzoimidazol-1-yl)-3-(4-nitro-phenoxy)-propan-2-ol] | 11 to 100 µM |
| N=c1n(CCCOc2ccccc2)c2ccccc2n1Cc1ccc(N2CCN(Cc3ccccc3-c3ccc(Cl)cc3)CC2)cc1 [Compound 30, 1-{4-[4-(4′-Chloro-biphenyl-2-ylmethyl)-piperazin-1-yl]-benzyl}-3-(3-phenoxy-propyl)-1,3-dihydro-benzoimidazol-2-ylideneamine] | < 10 µM |
| N=c1n(CCCOc2ccc(F)cc2)c2ccccc2n1Cc1ccc(CNCC(=O)Nc2cccc(Cl)c2)cc1 [Compound 50, N-(3-Chloro-phenyl)-2-(4-{3-[3-(4-fluoro-phenoxy)-propyl]-2-imino-2,3-dihydro-benzoimidazol-1-ylmethyl}-benzylamino)-acetamide] | 11 to 100 µM |
| N=c1n(CCCOc2ccc(F)cc2)c2ccccc2n1Cc1ccc(CN2CCN(Cc3ccccc3Cl)CC2)cc1 [Compound 48, 1-{4-[4-(2-Chloro-benzyl)-piperazin-1-ylmethyl]-benzyl}-3-[3-(4-fluoro-phenoxy)-propyl]-1,3-dihydro-benzoimidazol-2-ylideneamine] | 11 to 100 µM |
| N=c1n(CCCOc2ccc(F)cc2)c2ccccc2n1Cc1ccc(N2CCN(Cc3ccccc3Cl)CC2)nc1 [Compound 57, 1-{6-[4-(2-Chloro-benzyl)-piperazin-1-yl]-pyridin-3-ylmethyl}-3-[3-(4-fluoro-phenoxy)-propyl]-1,3-dihydro-benzoimidazol-2-ylideneamine] | 11 to 100 µM |
| CCCCn1c(=N)n(CC(O)COc2ccccc2OC)c2ccccc21 (stereo not shown) [Compound 93, 1-(3-Butyl-2-imino-2,3-dihydro-benzoimidazol-1-yl)-3-(2-methoxy-phenoxy)-propan-2-ol] | > 100 µM |
| N=c1n(CCCOc2ccc(F)cc2)c2ccccc2n1Cc1ccc(N2CCN(Cc3ccccc3-c3ccccc3)CC2)cc1 [Compound 25, 1-[4-(4-Biphenyl-2-ylmethyl-piperazin-1-yl)-benzyl]-3-[3-(4-fluoro-phenoxy)-propyl]-1,3-dihydro-benzoimidazol-2-ylideneamine] | < 10 µM |
| N=c1n(CCCOc2ccc(F)cc2)c2ccccc2n1Cc1ccc(N2CCN(Cc3ccccc3)CC2)cc1 [Compound 22, 1-[4-(4-Benzyl-piperazin-1-yl)-benzyl]-3-[3-(4-fluoro-phenoxy)-propyl]-1,3-dihydro-benzoimidazol-2-ylideneamine] | < 10 µM |
| COC(=O)c1cccc(Cn2c(=N)n(CCCOc3ccc(F)cc3)c3ccccc32)c1 [Compound 15, 3-{3-[3-(4-Fluoro-phenoxy)-propyl]-2-imino-2,3-dihydro-benzoimidazol-1-ylmethyl}-benzoic acid methyl ester] | < 10 µM |
| COC(=O)c1ccc(OCCCn2c(=N)n(Cc3cccc(Br)c3)c3ccccc32)cc1 [Compound 67, 4-{3-[3-(3-Bromo-benzyl)-2-imino-2,3-dihydro-benzoimidazol-1-yl]-propoxy}-benzoic acid methyl ester] | 11 to 100 µM |
| N=c1n(CCCOc2ccc(F)cc2)c2ccccc2n1Cc1ccccc1 [Compound 97, 1-Benzyl-3-[3-(4-fluoro-phenoxy)-propyl]-1,3-dihydro-benzoimidazol-2-ylideneamine] | 11 to 100 µM |
| N=c1n(Cc2ccccc2)c2ccccc2n1CC(O)COc1ccccc1 (stereo not shown) [Compound 78, 1-(3-Benzyl-2-imino-2,3-dihydro-benzoimidazol-1-yl)-3-phenoxy-propan-2-ol] | 11 to 100 µM |
| N=c1n(Cc2ccc(Cl)cc2)c2ccccc2n1CC(O)COc1ccccc1 (stereo not shown) [Compound 103, 1-[3-(4-Chloro-benzyl)-2-imino-2,3-dihydro-benzoimidazol-1-yl]-3-phenoxy-propan-2-ol] | 11 to 100 µM |
